Reference: patent publication US12358912B2 (ASCENTAGE PHARMA (SUZHOU) CO., LTD., priority 2020, dated 2025)

Key:
Format in all cases: physicochemical
[1] = Stability test (2): salt crystalline forms at high temperature, high humidity and light, detection by HPLC and XRPD; settings: for total impurities (%): HPLC
[2] = Evaluation of hygroscopicity by Dynamic Moisture Sorption Analyzer (DVS), with XRPD before and after DVS; settings: for weight increase by hygroscopy (80% RH): DVS; for XRPD change: XRPD before and after DVS
[3] = Stability test (1): physical and chemical stability by XRPD and HPLC at 80° C., 40° C./75% RH and 25° C./60% RH; settings: for purity (area %): HPLC
Procedure: (sealed) for 24 hours, at 40° C./75% RH and 25° C./60% RH (open) for 1 week, respectively. The physical and chemical stability of the samples were tested by XRPD and HPLC.

[4] = light (RT, white light 6980 lux, UV 282 μW/cm2), 5 days
[5] = light (RT, white light 6980 lux, UV 282 μW/cm2), 10 days
[6] = 60° C. (open), 5 days, listed as XL
[7] = 60° C. (open), 10 days, listed as XL
[8] = 60° C. (open), 30 days, listed as XL
[9] = light (RT, white light 6980 lux, UV 282 μW/cm2), 5 days, listed as XL
[10] = light (RT, white light 6980 lux, UV 282 μW/cm2), 10 days, listed as XL
[11] = 80° C. (sealed) 24 hours, 40° C./75% RH and 25° C./60% RH (open) 1 week
[12] = 60° C. (open), 5 days, listed as XXXVI
[13] = 60° C. (open), 10 days, listed as XXXVI
[14] = 60° C. (open), 30 days, listed as XXXVI
[15] = light (RT, white light 6980 lux, UV 282 μW/cm2), 5 days, listed as XXXVI
[16] = light (RT, white light 6980 lux, UV 282 μW/cm2), 10 days, listed as XXXVI

Row | SMILES | XPRD ([1]; 60° C. (open), 5 days) | XPRD ([1]; 60° C. (open), 10 days) | XPRD ([1]; 60° C. (open), 30 days) | total impurities (%) ([1]; 60° C. (open), 5 days) | total impurities (%) ([1]; 60° C. (open), 10 days) | total impurities (%) ([1]; 60° C. (open), 30 days) | total impurities (%) ([1]; RT/75% RH (open), 5 days) | total impurities (%) ([1]; RT/75% RH (open), 10 days) | total impurities (%) ([1]; RT/75% RH (open), 30 days) | total impurities (%) [1, 4] | total impurities (%) [1, 5] | total impurities (%) ([1]; the initial sample, 0 day) | XPRD ([1]; RT/75% RH (open), 5 days) | XPRD ([1]; RT/75% RH (open), 10 days) | XPRD ([1]; RT/75% RH (open), 30 days) | XPRD [1, 4] | XPRD [1, 5] | XPRD ([1]; the initial sample, 0 day) | weight increase by hygroscopy (80% RH) [2] | XRPD change [2] | other results
1 | O=C(NS(=O)(=O)c1ccc(NC[C@H]2COCCO2)c([N+](=O)[O-])c1)c1ccc(N2CCN(CC3=C(c4ccc(Cl)cc4)CC4(CCC4)CC3)CC2)cc1Oc1cnc2[nH]ccc2c1.O=S(=O)(O)O [XXX] | No change | No change | No change | 0.89% | 0.92% | 0.83% | 0.82% | 0.86% | 0.74% | 0.82% | 1.02% | 0.80% | No change | No change | No change | No change | No change | XXX | 0.90% | no change | 
2 | CS(=O)(=O)O.O=C(NS(=O)(=O)c1ccc(NC[C@H]2COCCO2)c([N+](=O)[O-])c1)c1ccc(N2CCN(CC3=C(c4ccc(Cl)cc4)CC4(CCC4)CC3)CC2)cc1Oc1cnc2[nH]ccc2c1 [XXXIII] |  |  |  | 0.90% | 0.91% | 1.11% | 0.67% | 0.71% | 0.70% | 0.84% | 1.09% | 0.67% |  |  |  | No change | No change | XXXIII | 7.82% | changed | 
3 | O=C(NS(=O)(=O)c1ccc(NC[C@H]2COCCO2)c([N+](=O)[O-])c1)c1ccc(N2CCN(CC3=C(c4ccc(Cl)cc4)CC4(CCC4)CC3)CC2)cc1Oc1cnc2[nH]ccc2c1.O=C(O)/C=C\C(=O)O [XXIV] | No change | No change | No change | 0.48% | 0.48% | 0.61% | 0.50% | 0.50% | 0.50% | 0.73% | 0.72% | 0.50% | No change | No change | No change | No change | No change | XXIV | 1.246% | changed | 
4 | Cc1ccc(S(=O)(=O)O)cc1.O=C(NS(=O)(=O)c1ccc(NC[C@H]2COCCO2)c([N+](=O)[O-])c1)c1ccc(N2CCN(CC3=C(c4ccc(Cl)cc4)CC4(CCC4)CC3)CC2)cc1Oc1cnc2[nH]ccc2c1 [XXIX] | No change | No change | No change | 0.64% | 0.65% | 0.66% | 0.65% | 0.65% | 0.60% | 0.64% | 0.59% | 0.65% | No change | No change | No change | No change | No change | XXIX | 0.948% | no change | 
5 | O=C(NS(=O)(=O)c1ccc(NC[C@H]2COCCO2)c([N+](=O)[O-])c1)c1ccc(N2CCN(CC3=C(c4ccc(Cl)cc4)CC4(CCC4)CC3)CC2)cc1Oc1cnc2[nH]ccc2c1.O=C(O)CC(O)(CC(=O)O)C(=O)O [XXXIX] | No change | No change | No change | 0.90% | 0.89% | 0.86% | 0.80% | 0.82% | 0.81% | 0.88% | 1.02% | 0.76% | No change | No change | No change | No change | No change | XXXIX | 0.37% | no change | 
6 | O=C(NS(=O)(=O)c1ccc(NCC2COCCO2)c([N+](=O)[O-])c1)c1ccc(N2CCN(CC3=C(c4ccc(Cl)cc4)CC4(CCC4)CC3)CC2)cc1Oc1cnc2[nH]ccc2c1 (centres unmarked) [maleate crystalline Form XL] |  |  |  |  |  |  |  |  |  |  |  |  | No change | No change |  |  |  |  |  | no change | XPRD [1, 6]: No change; XPRD [1, 7]: No change; XPRD [1, 8]: No change; total impurities (%) [1, 6]: 1.15%; total impurities (%) [1, 7]: 1.18%; total impurities (%) [1, 8]: 1.28%; total impurities (%) ([1]; RT/75% RH (open), 5 days, listed as XL): 0.93%; total impurities (%) ([1]; RT/75% RH (open), 10 days, listed as XL): 1.06%; total impurities (%) ([1]; RT/75% RH (open), 30 days, listed as XL): 0.90%; total impurities (%) [1, 9]: 1.08%; total impurities (%) [1, 10]: 1.18%; total impurities (%) ([1]; the initial sample, 0 day, listed as XL): 0.91%; XPRD [1, 9]: No change; XPRD [1, 10]: No change; weight increase by hygroscopy (80% RH) ([2]; listed as XL): 1.41%
7 | O=C(NS(=O)(=O)c1ccc(NCC2COCCO2)c([N+](=O)[O-])c1)c1ccc(N2CCN(CC3=C(c4ccc(Cl)cc4)CC4(CCC4)CC3)CC2)cc1Oc1cnc2[nH]ccc2c1 (centres unmarked) [amorphous form XXV] |  |  |  |  |  |  |  |  |  |  |  |  |  |  |  |  |  |  |  |  | chemical stability: degradation (HPLC purity) [3, 11]: did not degrade; physical stability: crystalline form (XRPD) [3, 11]: did not change; purity (area %) ([3]; 25° C./60% RH 1 week (open)): 99.42 area %; purity (area %) ([3]; 40° C./75% RH 1 week (open)): 99.45 area %; purity (area %) ([3]; 80° C. 24 hours (sealed)): 99.42 area %; purity (area %) ([3]; starting point): 99.43 area %
8 | O=C(NS(=O)(=O)c1ccc(NC[C@H]2COCCO2)c([N+](=O)[O-])c1)c1ccc(N2CCN(CC3=C(c4ccc(Cl)cc4)CC4(CCC4)CC3)CC2)cc1Oc1cnc2[nH]ccc2c1.O=S(=O)(O)c1ccccc1 [XXVII] | No change | No change | No change | 1.26% | 1.37% | 1.33% | 1.22% | 1.25% | 1.27% | 1.20% | 1.28% | 1.19% | No change | No change | No change | No change | No change | XXVII | 3.32% | no change | 
9 | O=C(NS(=O)(=O)c1ccc(NCC2COCCO2)c([N+](=O)[O-])c1)c1ccc(N2CCN(CC3=C(c4ccc(Cl)cc4)CC4(CCC4)CC3)CC2)cc1Oc1cnc2[nH]ccc2c1 (centres unmarked) [citrate crystalline Form XXXVI] |  |  |  |  |  |  |  |  |  |  |  |  |  |  |  |  |  | XXXVI |  | no change | XPRD [1, 12]: changed; XPRD [1, 13]: changed; XPRD [1, 14]: changed; total impurities (%) [1, 12]: 0.97%; total impurities (%) [1, 13]: 1.01%; total impurities (%) [1, 14]: 0.98%; total impurities (%) ([1]; RT/75% RH (open), 5 days, listed as XXXVI): 0.95%; total impurities (%) ([1]; RT/75% RH (open), 10 days, listed as XXXVI): 0.95%; total impurities (%) ([1]; RT/75% RH (open), 30 days, listed as XXXVI): 1.00%; total impurities (%) [1, 15]: 1.06%; total impurities (%) [1, 16]: 1.36%; total impurities (%) ([1]; the initial sample, 0 day, listed as XXXVI): 1.02%; XPRD [1, 15]: no change; XPRD [1, 16]: no change; weight increase by hygroscopy (80% RH) ([2]; listed as XXXVI): 2.00%
